Results on 2 molecules are retold here after US20050208678A1, “Anti-fusion assay” (priority 2001, published 2005).

In one assay the test system is IQN17. The assay can be described thus: Binding of Alexa-C28 to IQN17, titration measured by capillary zone electrophoresis. Further details: species or system HIV-1. Conditions: 5 μM Alexa-C28, increasing concentration of IQN17, FIG. 3. The protocol:
Eckert et al., Cell 99, 103-115 (1999). C28 was labeled with the fluorescent molecule, Alexa-430 (Molecular Probes) at its carboxyl terminal (Alexa-C28). The binding was measured by titration of labeled C28 with IQN17. The concentration of bound and unbound C28 was measured by capillary zone electrophoresis.
Capillary Electrophoresis Separations. Capillary electrophoresis experiments were conducted on a Beckman Coulter P/ACE System MDQ and a Spectrumedix 9610HTS. […] Separations were conducted with an applied voltage of 30 kV. The capillaries used in the Spectrumedix 9610HTS has an inner diameter of 50 μm, effective length of 50 cm, and an inner surface of fused silica. Separations were conducted with an applied voltage of 13 kV. Separation buffer was 20 mM Sodium Borate, pH=8.5. Peptides traveling passed a fluorescence detector were excited by a laser emitting at 488 nm. The peaks were analyzed using software packages supplied by the instrument companies. In the figures, RFU refers to relative fluorescence units.
Binding of C28 to IQN17: Peptide concentrations were determined by weight. […] The binding affinity of C28 to IQN-17 was determined by a capillary electrophoresis (FIG. 3). […]
The area of the Alexa-C28 peaks in increasing concentrations of IQN-17 was analyzed in comparison to the area of Alexa-C28 in the absence of IQN-17 by capillary zone electrophoresis. […]

For assay [1], the target named is IQN17 (HIV-1 (gp41 segment); GCN4-pIQI segment designed).

Where no end group is shown, it is not given here.

In the case of “Alexa-C28: C28 labeled with the fluorescent molecule Alexa-430 at its carboxyl terminal (WMEWDREINNYTSLIHSLIEESQNQQEK-{Alexa‑430})”, the “amount of unbound peptide (broader peak on the right) in titration” value in the assay on IQN17 is reported as “decreased from 100% to 0%”.

In turn, WMEWDREINNYTSLIHSLIEESQNQQEK (modifications not checked) [Alexa-C28] showed a percent of C28 bound in assay [1] of 80%.
